{"source": "patent US12343404B2", "about": "“Ligand-targeted cell conjugate (LTCC)-based anti-tumor immune cell” (priority 2020, dated 2025)", "test_system": "NK92-MI cells", "experiment": "Influence of azido sugar on NK cell activity (CCK8, OD450)", "format": "cell-based", "settings": "final concentration 50 μM; 24 hours and 48 hours; vs 0.1% DMSO control", "experimental": "This embodiment describes validation of influences of the added non-natural sugars on cell activities. The specific method is as follows: non-natural sugars were absorbed by cells; the cells were cultured for a period of time; then, OD450 was determined using a cell counting kit 8 (CCK8) (Beyotime), and a difference in cell activities of a group added with sugars and a group without sugars was analyzed.\nThe specific process is as follows: 1×10^5 pieces of NK cells were laid in a 96-pore plates; 0.1% DMSO was added into a control group, while Ac4ManNAz with a final concentration of 50 μM (the mount of the DMSO was equivalent to 0.1%) was added into an experimental group; then, the cells were cultured in an incubator at 37° C., and subsequently added with the CCK8 after 24 hours and 48 hours respectively; and after 2-hour incubation, OD450 was detected using a microplate reader.", "data": [{"compound": "CC(=O)OC[C@H]1OC(OC(C)=O)[C@@H](NC(=O)CN=[N+]=[N-])[C@@H](OC(C)=O)[C@@H]1OC(C)=O", "note": "(stereo partly shown) [Ac4ManNAz, N-azidoacetylmannosamine-tetraacylated]", "values": [{"measurement": "influence on cell activities (OD450, CCK8)", "result": "not toxic to cells, but slightly promoted growth"}]}]}
